According to patent publication US12428413B2 (CHDI Foundation, Inc., priority 2019, dated 2025):

Assays:
[1] = molecular target: human catalytic domain ROCK II protein (amino acids 5-554) with a N-terminal GST tag (Homo sapiens, UniProt O75116); assay: biochemical
[2] = system: cellular ROCK activity (cofilin phosphorylation at Ser3) in A7r5 rat smooth muscle cells; assay: Cellular ROCK activity: cofilin (Ser3) phosphorylation, In-Cell Western assay; format: cell-based; conditions: Rattus norvegicus, A7R5, 1 h, 1 hour compound incubation, phospho-cofilin (Ser3), read-out: CELL_IC50
Experimental: The potency of Rho-associated protein kinase (ROCK) inhibitors was quantified by measuring cofilin phosphorylation levels at Serine 3 (Ser3) as a measure of cellular ROCK activity by In-Cell Western assay. […] The assay plate was imaged and quantified on the Odyssey imager (LICOR Biosciences).
ROCK inhibitor compound plate preparation. […] Stock compounds and control are added directly to ECHO plate (Labcyte) by Janus.
A7r5 cell culture and plating. A7r5 cells were cultured according to standard cell culture protocols in A7r5 growth media (DMEM with Glutamax and 10% FBS). […] 45 μl of re-suspended A7r5 cells were plated at 3000 cells/well in a sterile, μclear, black, F-bottom, 384-well microplate (Greiner bio-one). Seeded cells allowed to settle in wells on the bench for 1 hour before incubation at 37° C., 5% CO2 overnight.
Assay reagent and antibody preparations. Wash buffer was prepared by addition of Tween-20 to Dulbecco's Phosphate Buffered Saline (DPBS) (1×) without calcium and magnesium to make 1% Tween-20 as final concentration. Blocking buffer was prepared by addition of TritonX-100 to SeaBlock buffer (ThermoFisher) to make 0.3% TritonX-100 as final concentration. […] Secondary antibody mix was prepared by diluting donkey anti-rabbit 800CW antibody (LICOR Biosciences) 1:1000 in SeaBlock buffer.
Assay procedure. Compound plate was diluted by addition of 19 μl/well compound dilution buffer (DMEM with Glutamax) using 125 μl 16-channel Matrix electronic pipette. 5 μl diluted compound was stamped from compound plate to assay plate containing A7r5 cells using Bravo (384-well head from Agilent) liquid handler and incubated at 37° C., 5% CO2 for 1 hour. Cells were fixed by addition of 5 μl 37% formaldehyde using 125 μl 16-channel Matrix electronic pipette and incubation for 20 min at room temperature. The assay plate was washed 5× with 60 μl/well wash buffer. […] Next, the assay plate was sealed, centrifuged at 1000 rpm for 5 seconds and incubated at 4° C. overnight on an orbital shaker at 300 rpm. […] The assay plate was centrifuged at 1000 rpm for 5 seconds and incubated on an orbital shaker at 300 rpm for 60 min at room temperature. Finally, assay plate was washed and wells left empty before measurement of 700 nm and 800 nm fluorescence intensities on Odyssey imager set at 4.0 mm focus offset.

Chain of human catalytic domain ROCK II protein (amino acids 5-554) with a N-terminal GST tag (O75116 5-554): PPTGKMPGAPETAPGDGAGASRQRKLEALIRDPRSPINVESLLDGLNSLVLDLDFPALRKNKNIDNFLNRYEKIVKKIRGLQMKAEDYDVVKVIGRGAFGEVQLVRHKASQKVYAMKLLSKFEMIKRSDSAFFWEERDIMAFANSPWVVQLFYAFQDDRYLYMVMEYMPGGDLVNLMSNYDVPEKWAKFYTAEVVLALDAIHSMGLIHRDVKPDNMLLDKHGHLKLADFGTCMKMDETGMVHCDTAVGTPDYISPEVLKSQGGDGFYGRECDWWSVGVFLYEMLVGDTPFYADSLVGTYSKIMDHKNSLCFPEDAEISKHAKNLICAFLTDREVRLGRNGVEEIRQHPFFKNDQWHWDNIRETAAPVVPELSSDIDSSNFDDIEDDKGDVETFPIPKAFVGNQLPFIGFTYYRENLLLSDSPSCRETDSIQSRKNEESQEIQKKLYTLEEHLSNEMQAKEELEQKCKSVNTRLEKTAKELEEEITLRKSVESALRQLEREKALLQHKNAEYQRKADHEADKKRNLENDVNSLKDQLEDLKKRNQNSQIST

Row | IC50 [1] | IC50 [2] | Compound
1 | 0.0881 µM | 1.44 µM | C[C@@H](NC(=O)N1CCN(c2ccncc2F)CC1)c1cccc2c1OC(F)(F)O2 [Example 36, (R)—N-(1-(2,2-Difluorobenzo[d][1,3]dioxol-4-yl)ethyl)-4-(3-fluoropyridin-4-yl)piperazine-1-carboxamide]
2 | 0.0546 µM | 0.559 µM | O=C(NCc1cccc2ncoc12)N1CCN(c2ccncc2F)CC1 [Example 39, N-(Benzo[d]oxazol-7-ylmethyl)-4-(3-fluoropyridin-4-yl)piperazine-1-carboxamide]
3 | 0.0029 µM | 0.0075 µM | COc1cccc([C@@H](C)NC(=O)N2CCN(c3ccncc3F)C[C@H]2C)c1 [Example 43, (R)-4-(3-Fluoropyridin-4-yl)-N—((R)-1-(3-methoxyphenyl)ethyl)-2-methylpiperazine-1-carboxamide]
4 | 0.0039 µM | 0.295 µM | COc1cccc([C@@H](C)OC(=O)N2CCN(c3ccncc3F)C[C@H]2C)c1 [Example 46, (R)-1-(3-Methoxyphenyl)ethyl (R)-4-(3-fluoropyridin-4-yl)-2-methylpiperazine-1-carboxylate]
5 | 0.0078 µM | 0.184 µM | C[C@@H]1CN(c2ccncc2F)CCN1C(=O)N[C@H](C)c1ccc(F)cc1Cl [Example 50, (R)—N—((R)-1-(2-Chloro-4-fluorophenyl)ethyl)-4-(3-fluoropyridin-4-yl)-2-methylpiperazine-1-carboxamide]
6 | 0.0035 µM | 0.0333 µM | COc1cc([C@@H](C)NC(=O)N2CCN(c3ccncc3F)C[C@H]2C)ccc1F [Example 53, (R)—N—((R)-1-(4-Fluoro-3-methoxyphenyl)ethyl)-4-(3-fluoropyridin-4-yl)-2-methylpiperazine-1-carboxamide]
7 | 0.013 µM | 0.144 µM | C[C@@H]1CN(c2ccncc2F)CCN1C(=O)NCc1ccccc1Cl [Example 54, (R)—N-(2-Chlorobenzyl)-4-(3-fluoropyridin-4-yl)-2-methylpiperazine-1-carboxamide]
8 | 0.0233 µM | 0.602 µM | COc1ccc(F)c(CNC(=O)N2CCN(c3ccncc3F)C[C@H]2C)c1 [Example 55, (R)—N-(2-Fluoro-5-methoxybenzyl)-4-(3-fluoropyridin-4-yl)-2-methylpiperazine-1-carboxamide]
9 | 0.36 µM | 3.05 µM | COc1ncccc1CNC(=O)N1CCN(c2ccncc2F)C[C@H]1C [Example 56, (R)-4-(3-Fluoropyridin-4-yl)-N-((2-methoxypyridin-3-yl)methyl)-2-methylpiperazine-1-carboxamide]
10 | 0.005 µM | 0.0391 µM | C[C@@H]1CN(c2ccncc2F)CCN1C(=O)N[C@H](C)c1cccc2c1CC(C)(C)O2 [Example 57, (R)—N—((R)-1-(2,2-Dimethyl-2,3-dihydrobenzofuran-4-yl)ethyl)-4-(3-fluoropyridin-4-yl)-2-methylpiperazine-1-carboxamide]
11 | 0.0024 µM | 0.0138 µM | C[C@@H]1CN(c2ccncc2F)CCN1C(=O)N[C@H](C)c1cccn2nccc12 [Example 61, (R)-4-(3-Fluoropyridin-4-yl)-2-methyl-N—((R)-1-(pyrazolo[1,5-a]pyridin-4-yl)ethyl)piperazine-1-carboxamide]
12 | 0.108 µM | 0.49 µM | C[C@H](NC(=O)N1CCN(c2ccncc2F)C[C@H]1C)c1cccn2nccc12 [Example 62, (R)-4-(3-Fluoropyridin-4-yl)-2-methyl-N—((S)-1-(pyrazolo[1,5-a]pyridin-4-yl)ethyl)piperazine-1-carboxamide]
13 | 0.0034 µM | 0.0132 µM | Cc1cnc2cccc([C@@H](C)NC(=O)N3CCN(c4ccncc4F)C[C@H]3C)n12 [Example 65, (R)-4-(3-Fluoropyridin-4-yl)-2-methyl-N—((R)-1-(3-methylimidazo[1,2-a]pyridin-5-yl)ethyl)piperazine-1-carboxamide]
